Key:
rat right atria = experiment: Right atrial spontaneous (pacemaker-driven) contraction frequency; details: 30 nM isoproterenol
Description: Male Sprague-Dawley rats (325-400 g) were anesthetized with intra-peritoneal pentobarbital (0.1 g/kg). Their right and left atria were isolated, superfused at 30° C. in Krebs-Henseleit buffer, and nearly isometric forces of contraction were measured from these muscles (Wolkowicz et al., 2002). 2-APB was prepared as a 150 mM dimethyl sulfoxide stock.
Left atria (n=9) were paced at 0.1 Hz, treated with 300 nM BayK 8644 for 5 min, then with 20 μM 2-APB for 10 min, and the pacing stimulus was stopped. These preparations then were incubated with six increasing concentrations of zatebradine (10-100 μM) for 3-5 min at each concentration, and rates of SMA were recorded. Untreated right atria (n=9) also were titrated with zatebradine and its effect on contraction frequency was recorded.
To test whether zatebradine affects the SMA occurring in the presence of 2-APB and isoproterenol, left atria (n=7) were paced at 0.1 Hz, treated with 30 nM isoproterenol for 5 min, then with 20 μM 2-APB for 10 min, and the pacing stimulus was stopped. Rates of SMA were recorded, these left atria were exposed to 70 μM zatebradine for 10 min, and rates of SMA were recorded again. A group of right atria (n=7) also were exposed to 30 nM isoproterenol for 5 min and then to 70 μM zatebradine for 10 min. Right atrial contraction frequency was recorded at these two times.
To test whether ZD-7288 (4-Ethylphenyl amino-1,2-dimethyl-6-methylaminopyridinium chloride), an If inhibitor structurally unrelated to zatebradine (Baruscotti et al., 2005; Sanders et al., 2006) affects the SMA occurring in the presence of 2-APB and BayK 8644, rat left atria (n=7) were treated with 300 nM BayK 8644 for 5 min, then with 20 μM 2-APB for 10 min, and the rates of SMA were recorded. These atria then were incubated with six increasing concentrations of ZD-7288 (10-100 μM) for 3-5 min at each concentration, and the rates of SMA were recorded. Right atria (n=7) were titrated similarly with ZD-7288 (0-100 μM) and the change in their contraction frequency was recorded.

[1] = system: right ventricular muscle strips and right or left ventricular papillary muscles; experiment: Ventricular muscle model of SMA and STA; parameters: species or system rat; details: paced at 0.5 Hz, added to the superfusate in appropriate amounts
Excerpt: To further establish this model as a general test for arrhythmic and anti-arrhythmic agents, right ventricular muscle strips and right or left ventricular papillary muscles were isolated from anesthetized rats as cardiac muscle exemplars using methods known to persons skilled in the art. Additional exemplars could include ventricular or atrial conduction system cells and the SAN itself. These muscles were then superfused as described above and paced at 0.5 Hz.

[2] = system: isolated atrial and ventricular muscle; details: >20 μM 2-APB with an agent that increases myocyte calcium load
Description: Specifically, isolated, superfused heart muscle, atrial or ventricular, treated with an appropriate concentration of 2-APB (>20 μM) and with an agent that increases myocyte calcium load was exposed to external pacing that stimulates the muscle at a physiological rate and with strength just sufficient to capture it.

| Compound | right atrial contraction frequency (rat right atria) | ventricular SMA [1] | mechanical activity under physiological-rate pacing [2] |
| --- | --- | --- | --- |
| CC(C)NCC(O)c1ccc(O)c(O)c1 (stereo not drawn) [isoproterenol] | 276±11.4 contractions/min | – | – |
| NCCOB(c1ccccc1)c1ccccc1 [2-APB, 2-aminoethoxydiphenyl borate] | – | ventricular SMA was observed | disorganized, fibrillation-like mechanical activity |

— patent US20110144125A1, “Anti-Arrhythmia Agents, Methods of Their Use, Methods of Their Identification and Kits Therefore” (THE UAB RESEARCH FOUNDATION, priority 2008, published 2011)
